Results reported in patent US8895695B2, “Template-fixed beta-hairpin peptidomimetics with CXCR4 antagonizing activity” (priority 2003, dated 2014).
Bridge positions count the residues as written; N and C are the ends. Square brackets hold non-standard residues; d marks the D form. Peptide text beside a SMILES is read from it. 2Nal = N[C@@H](Cc1ccc2ccccc2c1)C(=O)O; Cit = NC(=O)NCCC[C@H](N)C(=O)O

Assays:
[1] = molecular target: CXCR4 (Homo sapiens, UniProt P61073); assay: Ca2+-assay method 2 (Flexstation, SDF-1 induced calcium mobilization); format: cell-based; set-up: expressed in transfected cells; host or cells: mouse pre-B cell line 300-19; conditions: method 2 (Ex. 54-160), mouse pre-B cell line 300-19 with human CXCR4, 10 nM SDF-1; read-out: IC50 (nM) Ca^2+ assay
CXCR4, sequence (P61073 whole entry): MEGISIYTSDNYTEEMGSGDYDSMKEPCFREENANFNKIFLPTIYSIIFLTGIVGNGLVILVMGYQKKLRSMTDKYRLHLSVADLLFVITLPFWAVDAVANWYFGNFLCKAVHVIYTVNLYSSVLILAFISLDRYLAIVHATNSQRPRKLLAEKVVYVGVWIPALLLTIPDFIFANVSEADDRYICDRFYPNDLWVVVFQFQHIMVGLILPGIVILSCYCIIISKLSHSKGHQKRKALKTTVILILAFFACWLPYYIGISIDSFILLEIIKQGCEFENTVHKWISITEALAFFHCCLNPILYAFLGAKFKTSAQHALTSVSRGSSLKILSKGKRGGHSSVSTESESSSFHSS
Experimental: 2.2. Ca^2+-Assay: CXCR4-Antagonizing Activity of the Peptides.
The cells were batch loaded with the Calcium 3 Assay kit (Molecular Devices) in assay buffer (Hanks Balanced salt solution, HBSS, 20 mM HEPES, pH 7.4, 0.1% BSA) for 1 h at room temperature and then 200,000 labeled cells were dispensed into black 96 well assays plates (Costar No. 3603). A 20-fold concentrated solution of peptide in assay buffer was added to the cells and the whole plate was centrifuged to settle the cells to the bottom of the wells. Calcium mobilization induced by 10 nM stromal-derived factor-1 (SDF-1) was measured in the Flexstation 384 (excitation, 485 nM; emission, 525 nM) for 90 seconds. A maximal change in fluorescence response above baseline was used to calculate antagonist activity. The data for dose response curves (antagonist concentration versus % maximum response) were fitted to a four parameter logistic equation using SoftmaxPro 4.6 (Molecular Devices), from which IC50% values were calculated.

[2] = in vitro; conditions: human
[3] = test system: human red blood cells (hRBC); assay: Hemolysis; format: cell-based
Experimental: The peptides were tested for their hemolytic activity against human red blood cells (hRBC). Fresh hRBC were washed three times with phosphate buffered saline (PBS) by centrifugation for 10 min at 2000×g. Peptides at a concentration of 100 μM were incubated with 20% v/v hRBC for 1 hour at 37° C. The final erythrocyte concentration was approximately 0.9×10^9 cells per ml. A value of 0% resp. 100% cell lysis was determined by incubation of the hRBC in the presence of PBS alone and respectively 0.1% Triton X-100 in H2O. The samples were centrifuged and the supernatant was 20-fold diluted in PBS buffer and the optical density (OD) of the sample at […] was measured. The 100% lyses value (OD540H2O) gave an OD540 of approximately 1.3-1.8. Percent hemolysis was calculated as follows: (OD540peptide/OD540H2O)×100%.
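Wherever GI50 is given: MTT reduction read as absorbance at 595 nm, blank-corrected and expressed as percent growth relative to the time-zero cell reading, triplicate wells per concentration.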

Row | Compound | IC50 [1] [nM] | GI50 at 48 h [2] [µM] | Hemolysis at 100 μM [3] [%]
1 | N=C(N)NCCC[C@@H]1NC(=O)[C@@H]2CSSC[C@H](NC(=O)[C@H](Cc3ccc4ccccc4c3)NC(=O)[C@H](CCCNC(=N)N)NC(=O)[C@H](Cc3ccc(O)cc3)NC(=O)[C@H]3CCCN3C(=O)CNC1=O)C(=O)N[C@@H](Cc1ccc(O)cc1)C(=O)N[C@@H](CCC(N)=O)C(=O)N[C@@H](CCCCN)C(=O)N1CCC[C@@H]1C(=O)N1CCC[C@H]1C(=O)N[C@@H](Cc1ccc(O)cc1)C(=O)N[C@@H](CCCNC(=N)N)C(=O)N[C@@H](CCCNC(N)=O)C(=O)N2 [Ex. 54] (cyclo(YR[Cit]CRG[dP]YR[2Nal]CYQK[dP]P); disulfide 4-11) | 6.9 | 54 | 0
2 | N=C(N)NCCC[C@@H]1NC(=O)[C@@H]2CSSC[C@H](NC(=O)[C@H](Cc3ccc4ccccc4c3)NC(=O)[C@H](CCCNC(=N)N)NC(=O)[C@H](Cc3c[nH]c4ccccc34)NC(=O)[C@H]3CCCN3C(=O)CNC1=O)C(=O)N[C@@H](Cc1ccc(O)cc1)C(=O)N[C@@H](CCC(N)=O)C(=O)N[C@@H](CCCCN)C(=O)N1CCC[C@@H]1C(=O)N1CCC[C@H]1C(=O)N[C@@H](Cc1ccc(O)cc1)C(=O)N[C@@H](CCCNC(=N)N)C(=O)N[C@@H](CCCNC(N)=O)C(=O)N2 [Ex. 55] (cyclo(YR[Cit]CRG[dP]WR[2Nal]CYQK[dP]P); disulfide 4-11) | 6.3 | 43 | 0.1
3 | N=C(N)NCCC[C@@H]1NC(=O)[C@@H]2CSSC[C@H](NC(=O)[C@H](Cc3ccc4ccccc4c3)NC(=O)[C@H](CCCNC(=N)N)NC(=O)[C@H](CCCNC(=N)N)NC(=O)[C@H]3CCCN3C(=O)CNC1=O)C(=O)N[C@@H](Cc1ccc(O)cc1)C(=O)N[C@@H](Cc1c[nH]cn1)C(=O)N[C@@H](CCCCN)C(=O)N1CCC[C@@H]1C(=O)N1CCC[C@H]1C(=O)N[C@@H](Cc1ccc(O)cc1)C(=O)N[C@@H](CCCNC(=N)N)C(=O)N[C@@H](CCCNC(N)=O)C(=O)N2 [Ex. 58] (cyclo(YR[Cit]CRG[dP]RR[2Nal]CYHK[dP]P); disulfide 4-11) | 10.5 | 18 | 0
4 | N=C(N)NCCC[C@@H]1NC(=O)[C@@H]2CSSC[C@H](NC(=O)[C@H](Cc3ccc4ccccc4c3)NC(=O)[C@H](CCCNC(=N)N)NC(=O)[C@H](CCCNC(=N)N)NC(=O)[C@H]3CCCN3C(=O)CNC1=O)C(=O)N[C@@H](Cc1ccc(O)cc1)C(=O)N[C@@H](Cc1ccc(O)cc1)C(=O)N[C@@H](CCCCN)C(=O)N1CCC[C@@H]1C(=O)N1CCC[C@H]1C(=O)N[C@@H](Cc1ccc(O)cc1)C(=O)N[C@@H](CCCNC(=N)N)C(=O)N[C@@H](CCCNC(N)=O)C(=O)N2 [Ex. 59] (cyclo(YR[Cit]CRG[dP]RR[2Nal]CYYK[dP]P); disulfide 4-11) | 7.8 | 33 | 0.1
5 | N=C(N)NCCC[C@@H]1NC(=O)[C@@H]2CSSC[C@H](NC(=O)[C@H](Cc3ccc4ccccc4c3)NC(=O)[C@H](CCCNC(=N)N)NC(=O)[C@H](CCCNC(=N)N)NC(=O)[C@H]3CCCN3C(=O)CNC1=O)C(=O)N[C@@H](Cc1ccc(O)cc1)C(=O)N[C@@H](CCC(N)=O)C(=O)N[C@@H](CCCCN)C(=O)N1CCC[C@@H]1C(=O)N1CCC[C@H]1C(=O)N[C@@H](CCC(N)=O)C(=O)N[C@@H](CCCNC(=N)N)C(=O)N[C@@H](CCCNC(N)=O)C(=O)N2 [Ex. 62] (cyclo(QR[Cit]CRG[dP]RR[2Nal]CYQK[dP]P); disulfide 4-11) | 1.8 | 65 | 0.1
6 | N=C(N)NCCC[C@@H]1NC(=O)[C@@H]2CSSC[C@H](NC(=O)[C@H](Cc3ccc4ccccc4c3)NC(=O)[C@H](CCCNC(=N)N)NC(=O)[C@H](CCCNC(=N)N)NC(=O)[C@H]3CCCN3C(=O)CNC1=O)C(=O)N[C@@H](Cc1ccc(O)cc1)C(=O)N[C@@H](CCC(N)=O)C(=O)N[C@@H](CCCCN)C(=O)N1CCC[C@@H]1C(=O)N1CCC[C@H]1C(=O)N[C@@H](Cc1c[nH]cn1)C(=O)N[C@@H](CCCNC(=N)N)C(=O)N[C@@H](CCCNC(N)=O)C(=O)N2 [Ex. 64] (cyclo(HR[Cit]CRG[dP]RR[2Nal]CYQK[dP]P); disulfide 4-11) | 3.3 | 66 | 0.3
7 | CC[C@H](C)[C@@H]1NC(=O)[C@@H]2CCCN2C(=O)[C@H]2CCCN2C(=O)[C@H](CCCCN)NC(=O)[C@H](CCC(N)=O)NC(=O)[C@H](Cc2ccc(O)cc2)NC(=O)[C@@H]2CSSC[C@H](NC(=O)[C@H](CCCNC(N)=O)NC(=O)[C@H](CCCNC(=N)N)NC1=O)C(=O)N[C@@H](CCCNC(=N)N)C(=O)NCC(=O)N1CCC[C@@H]1C(=O)N[C@@H](CCCNC(=N)N)C(=O)N[C@@H](CCCNC(=N)N)C(=O)N[C@@H](Cc1ccc3ccccc3c1)C(=O)N2 [Ex. 65] (cyclo(IR[Cit]CRG[dP]RR[2Nal]CYQK[dP]P); disulfide 4-11) | 3.9 | 65 | 0.2
8 | N=C(N)NCCC[C@@H]1NC(=O)[C@@H]2CSSC[C@H](NC(=O)[C@H](Cc3ccc4ccccc4c3)NC(=O)[C@H](CCCNC(=N)N)NC(=O)[C@H](CCCNC(=N)N)NC(=O)[C@H]3CCCN3C(=O)CNC1=O)C(=O)N[C@@H](Cc1ccc(O)cc1)C(=O)N[C@@H](CCC(N)=O)C(=O)N[C@@H](CCCCN)C(=O)N1CCC[C@@H]1C(=O)N1CCC[C@H]1C(=O)N[C@@H](Cc1c[nH]c3ccccc13)C(=O)N[C@@H](CCCNC(=N)N)C(=O)N[C@@H](CCCNC(N)=O)C(=O)N2 [Ex. 66] (cyclo(WR[Cit]CRG[dP]RR[2Nal]CYQK[dP]P); disulfide 4-11) | 3.8 | 46 | 0
9 | C[C@@H](O)[C@@H]1NC(=O)[C@@H]2CCCN2C(=O)[C@H]2CCCN2C(=O)[C@H](CCCCN)NC(=O)[C@H](CCC(N)=O)NC(=O)[C@H](Cc2ccc(O)cc2)NC(=O)[C@@H]2CSSC[C@H](NC(=O)[C@H](CCCNC(N)=O)NC(=O)[C@H](CCCNC(=N)N)NC1=O)C(=O)N[C@@H](CCCNC(=N)N)C(=O)NCC(=O)N1CCC[C@@H]1C(=O)N[C@@H](CCCNC(=N)N)C(=O)N[C@@H](CCCNC(=N)N)C(=O)N[C@@H](Cc1ccc3ccccc3c1)C(=O)N2 [Ex. 67] (cyclo(TR[Cit]CRG[dP]RR[2Nal]CYQK[dP]P); disulfide 4-11) | 2.4 | 49 | 0.2
10 | N=C(N)NCCC[C@@H]1NC(=O)[C@@H]2CSSC[C@H](NC(=O)[C@H](Cc3ccc4ccccc4c3)NC(=O)[C@H](CCCNC(=N)N)NC(=O)[C@H](CCCNC(=N)N)NC(=O)[C@H]3CCCN3C(=O)CNC1=O)C(=O)N[C@@H](Cc1ccc(O)cc1)C(=O)N[C@@H](CCC(N)=O)C(=O)N[C@@H](CCCCN)C(=O)N1CCC[C@@H]1C(=O)N1CCC[C@H]1C(=O)N[C@@H](Cc1ccc(O)cc1)C(=O)N[C@@H](CCCNC(=N)N)C(=O)N[C@@H](CCCNC(=N)N)C(=O)N2 [Ex. 69] (cyclo(YRRCRG[dP]RR[2Nal]CYQK[dP]P); disulfide 4-11) | 1.8 | 49 | 0.1
11 | N=C(N)NCCC[C@@H]1NC(=O)[C@@H]2CSSC[C@H](NC(=O)[C@H](Cc3ccc4ccccc4c3)NC(=O)[C@H](CCCNC(=N)N)NC(=O)[C@H](CCCNC(=N)N)NC(=O)[C@H]3CCCN3C(=O)CNC1=O)C(=O)N[C@@H](Cc1ccc(O)cc1)C(=O)N[C@@H](CCC(N)=O)C(=O)N[C@@H](CCCCN)C(=O)N1CCC[C@@H]1C(=O)N1CCC[C@H]1C(=O)N[C@@H](Cc1ccc(O)cc1)C(=O)N[C@@H](CCCNC(=N)N)C(=O)N[C@@H](Cc1c[nH]cn1)C(=O)N2 [Ex. 70] (cyclo(YRHCRG[dP]RR[2Nal]CYQK[dP]P); disulfide 4-11) | 19.5 | 40 | 0.2
